In PubChem BioAssay (NCI) one finds TGI data, which are given here for two compounds.

Test systems include HOP-62 NSCLC; 786-0 renal; RXF 393 renal; COLO 205 colon; A498 renal; HL-60(TB) leukemia; UACC-257 melanoma; A549 NSCLC; DLD-1 colon; OVCAR-4 ovarian; SK-MEL-28 melanoma; CCRF-CEM leukemia; K-562 leukemia; SN12C renal; U251 CNS; SF-295 CNS; IGROV1 ovarian; HS 578T breast; DU-145 prostate; BT-549 breast.
Holding throughout (assay): DTP human tumour cell line panel, 48 h

For orientation: TGI means the concentration at which net growth stops. A higher TGI goes with lower sensitivity of the cells.

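Interpolation was linear, between the two tested concentrations surrounding the appropriate level; five concentrations were tested over 48 hours in 96-well plates. The concentration for full growth arrest is given as TGI.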 A value given as a limit tells only on which side of the number the result lay.

`Cc1ccc(C[P+]2(c3ccccc3)CCCCC2)cc1`: the TGI is > 100 µM in the experiment with HOP-62 NSCLC; > 100 µM in the experiment with 786-0 renal; > 100 µM in the experiment on RXF 393 renal; 30.2 µM with COLO 205 colon; > 100 µM with A498 renal; 33.6 µM with HL-60(TB) leukemia. Besides, the TGI with UACC-257 melanoma was 32.6 µM; in the experiment with A549 NSCLC it was > 100 µM; with DLD-1 colon, > 100 µM; in the experiment with OVCAR-4 ovarian it was > 100 µM; in the experiment with SK-MEL-28 melanoma it was > 100 µM; in the experiment on CCRF-CEM leukemia it was > 100 µM. For the same compound, the total growth inhibition concentration (TGI) in the experiment on K-562 leukemia is > 100 µM; with SN12C renal, > 100 µM; in the experiment with U251 CNS, 42.4 µM; in the experiment on SF-295 CNS it was > 100 µM; in the experiment on IGROV1 ovarian, > 100 µM.

Regarding `N=c1nc2n(cc1F)[C@@H]1O[C@H](CO)[C@@H](O)[C@@H]1O2`, the TGI with HOP-62 NSCLC is > 100 µM; with 786-0 renal, > 38.9 µM; in the experiment on RXF 393 renal, > 56.2 µM; with COLO 205 colon it was > 96.9 µM; in the experiment on HS 578T breast, > 100 µM; with A498 renal, > 100 µM. In addition, the TGI with HL-60(TB) leukemia was > 40.9 µM; with UACC-257 melanoma it was > 100 µM; in the experiment with A549 NSCLC, > 100 µM; with DU-145 prostate it was > 100 µM; in the experiment with DLD-1 colon, > 100 µM; in the experiment with OVCAR-4 ovarian it was > 100 µM. Besides, the TGI was > 100 µM with SK-MEL-28 melanoma; > 12.3 µM with CCRF-CEM leukemia; > 100 µM with K-562 leukemia; > 100 µM in the experiment with SN12C renal; > 100 µM with BT-549 breast; > 91.9 µM in the experiment with U251 CNS. In addition, the values for the TGI with SF-295 CNS and with IGROV1 ovarian were > 100 µM and > 92.7 µM, respectively.
